From patent publication US11840528B2 (Hoffmann-La Roche Inc., priority 2018, dated 2023)

Experiments:
[1] = molecular target: T1, h-GABA-A α5β3γ2 (Homo sapiens, UniProt P18507+P31644); assay: [3H]flumazenil competition binding assay, membranes of HEK293 cells expressing GABAA receptors; details: displacement of [3H]-Flumazenil 0.5 nM, HEK293 cells expressing human receptors, mean of two determinations; Table 1
Procedure, shortened: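 Receptor source: human α5β3γ2 transiently transfected into HEK293 cells, membranes in pH 7.5 Krebs-tris. Filtration through GF/C, then scintillation counting.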

[2] = molecular target: T1, h-GABA-A α5β3γ2; assay: Two-electrode voltage clamp electrophysiology in Xenopus laevis oocytes expressing GABAA receptors, modulation of GABA EC20 current; assay type: cell-based; set-up: host or cells: Xenopus laevis oocytes micro-injected with RNA transcripts of the subunits; details: Table 1; for Efficacy (GABA) %: % modulation of GABA EC20 = 100*(Fold increase-1); for Fold increase h-GABA-A α5β3γ2 oocyte: test compound at approx. 30 fold its Ki, GABA at EC20
Procedure, shortened: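 Modulation is reported as % of the GABA EC20 current, calculated as 100*(Fold increase−1) from the peak ratio between a second GABA response carrying compound (applied at roughly 30-fold Ki) and a preceding control response. Oocytes expressing human α5β3γ2 were clamped at −80 mV at room temperature, 3–5 days after injection.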

SMILES | Ki [1] [nM] | Efficacy (GABA) % [2] [%] | Fold increase h-GABA-A α5β3γ2 oocyte [2]
Cc1onc(-c2ccc(Cl)nc2)c1Cn1ncc(N2CCC3(CCOCC3)CC2)cc1=O [Example 248, 2-((3-(6-chloropyridin-3-yl)-5-methylisoxazol-4-yl)methyl)-5-(3-oxa-9-azaspiro[5.5]undecan-9-yl)pyridazin-3(2H)-one] | 24.6 | 107 | 2.07
COc1ncc(-c2cnn(Cc3c(-c4ccc(Cl)nn4)noc3C)c(=O)c2)cc1Cl [Example 282, 5-(5-chloro-6-methoxypyridin-3-yl)-2-((3-(6-chloropyridazin-3-yl)-5-methylisoxazol-4-yl)methyl)pyridazin-3(2H)-one] | 1.5 | 166 | 2.66
CCOC1CN(c2cnn(Cc3c(-c4ccc(C)nc4)noc3C)c(=O)c2)C1 [Example 99, 5-(3-ethoxyazetidin-1-yl)-2-[[5-methyl-3-(6-methyl-3-pyridyl)isoxazol-4-yl]methyl]pyridazin-3-one] | 14.4 | 134 | 2.34
Cc1onc(-c2ncc(C(F)(F)F)cn2)c1Cn1ncc(N2CC3(C2)CC(F)(F)CO3)cc1=O [Example 250, 5-(7,7-difluoro-5-oxa-2-azaspiro[3.4]octan-2-yl)-2-((5-methyl-3-(5-(trifluoromethyl)pyrimidin-2-yl)isoxazol-4-yl)methyl)pyridazin-3(2H)-one] | 3.3 | 46 | 1.46

Continued by falling Ki [1], values first:

Ki [1] [nM] | Efficacy (GABA) % [2] [%] | Fold increase h-GABA-A α5β3γ2 oocyte [2] | SMILES
45.1 | 127 | 2.27 | Cc1onc(-c2ccc(Cl)nc2)c1Cn1ncc(N2CC3(C[C@@H](F)CO3)C2)cc1=O [Example 230, (R)-2-((3-(6-chloropyridin-3-yl)-5-methylisoxazol-4-yl)methyl)-5-(7-fluoro-5-oxa-2-azaspiro[3.4]octan-2-yl)pyridazin-3(2H)-one]
9.8 | 152 | 2.52 | Cc1onc(-c2ncc(Cl)cc2F)c1Cn1ncc(N2CCN(C(=O)C3(C)CC3)CC2)cc1=O [Example 53, 2-[[3-(5-chloro-3-fluoro-2-pyridyl)-5-methyl-isoxazol-4-yl]methyl]-5-[4-(1-methylcyclopropanecarbonyl)piperazin-1-yl]pyridazin-3-one]
9.4 | 105 | 2.05 | COC1CN(c2cnn(Cc3c(-c4ccc(C(F)(F)F)nn4)noc3C)c(=O)c2)C1 [Example 281, 5-(3-methoxyazetidin-1-yl)-2-((5-methyl-3-(6-(trifluoromethyl)pyridazin-3-yl)isoxazol-4-yl)methyl)pyridazin-3(2H)-one]
1.6 | 125 | 2.25 | Cc1ccc(-c2noc(C)c2Cn2ncc(N3C[C@@H](C)N[C@@H](C)C3)cc2=O)cn1 [Example 93, 5-[(3R,5S)-3,5-dimethylpiperazin-1-yl]-2-[[5-methyl-3-(6-methyl-3-pyridyl)isoxazol-4-yl]methyl]pyridazin-3-one]
1.5 | 166 | 2.66 | C[C@@H]1CN(c2cnn(Cc3c(-c4ccc(Cl)cn4)noc3C3CC3)c(=O)c2)C[C@H](C)O1 [Example 14, 2-((3-(5-Chloropyridin-2-yl)-5-cyclopropylisoxazol-4-yl)methyl)-5-(cis-2,6-dimethylmorpholino)pyridazin-3(2H)-one]
